IC50 data for 23 compounds are collected here from US20250059185A1 (Hoffmann-La Roche Inc., priority 2021, published 2025).

pIC50: −log10 of the molar value. Structures can show the parent of a compound that is named as a salt.

MAGL, sequence (Q99685 whole entry, species assumed): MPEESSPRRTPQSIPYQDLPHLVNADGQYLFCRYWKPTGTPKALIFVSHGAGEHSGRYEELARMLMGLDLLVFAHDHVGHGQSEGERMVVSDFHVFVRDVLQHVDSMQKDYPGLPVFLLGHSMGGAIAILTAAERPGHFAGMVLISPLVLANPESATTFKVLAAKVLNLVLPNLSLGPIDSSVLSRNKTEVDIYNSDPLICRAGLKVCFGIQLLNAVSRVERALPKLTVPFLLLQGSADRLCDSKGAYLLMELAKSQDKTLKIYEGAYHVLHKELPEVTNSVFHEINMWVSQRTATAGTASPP

The assay has as its target MAGL (Homo sapiens (Human), UniProt Q99685). The experiment in a line: 2-AG assay (MAGL inhibitory activity, hydrolysis of 2-arachidonoylglycerol followed by mass spectrometry). In kind it is biochemical. Conditions: 50 pM MAGL protein, 15 min pre-incubation, 30 min incubation at RT. An excerpt:
Compounds of formula (II) were profiled for MAGL inhibitory activity by determining the enzymatic activity by following the hydrolysis of the natural substrate 2-arachidonoylglycerol (2-AG) resulting in arachidonic acid, which can be followed by mass spectrometry. This assay is hereinafter abbreviated “2-AG assay”.
Compounds of formula (II) were profiled for MAGL inhibitory activity by determining the enzymatic activity by following the hydrolysis of the natural substrate 2-arachidonoylglycerol (2-AG) resulting in arachidonic acid, which can be followed by mass spectrometry. This assay is hereinafter abbreviated “2-AG assay”. The 2-AG assay was carried out in 384 well polypropylene assay plates. Compound dilutions were made in 100% DMSO in a polypropylene plate in 3-fold dilution steps to give a final concentration range in the assay from 12.5 μM to 0.8 pM. Compound dilutions were added to MAGL protein in assay buffer (50 mM TRIS, 1 mM EDTA, 0.01% (v/v) Tween-20, 2.5% (v/v) DMSO). After shaking, the plate was incubated for 15 min at RT. To start the reaction, 2-arachidonoylglycerol in assay buffer was added. The final concentrations in the assay was 50 pM for MAGL protein and […] 2-arachidonoylglyerol. After shaking and 30 min incubation at RT, the reaction was quenched by the addition of two assay volumes of acetonitrile containing 4 μM of d8-arachidonic acid. The amount of arachidonic acid formed was traced by an online SPE system (Agilent Rapidfire) coupled to a triple quadrupole mass spectrometer. A C18 SPE cartridge (Agilent G9205A) was used in an acetonitrile/water liquid setup. The mass spectrometer was operated in negative electrospray mode following the mass transitions 303.1→259.1 for arachidonic acid and 311.1→267.0 for d8-arachidonic acid. The activity of the compounds was calculated based on the ratio of intensities [arachidonic acid/d8-arachidonic acid].
On to `CC1c2nn(C)c(-c3cc(Cl)cc(C4(C(N)=O)CC4)c3)c2CCN1C(=O)c1cc(F)cc(OCC2CNC(=O)C2)c1Cl` (centres unmarked) [Example 70, 1-[3-chloro-5-[6-[2-chloro-5-fluoro-3-[(5-oxopyrrolidin-3-yl)methoxy]benzoyl]-2,7-dimethyl-5,7-dihydro-4H-pyrazolo[3,4-c]pyridin-3-yl]phenyl]cyclopropanecarboxamide], for which the pIC50 (as a rule, −log10 of the IC50, conventionally taken in molar units) is 7.38. Under `C[C@H]1c2nn(C)c(-c3cc(F)cc(F)c3)c2CCN1C(=O)c1ncn(-c2ccc[nH]c2=O)c1Cl` [Example 77, 3-[5-chloro-4-[(7S)-3-(3,5-difluorophenyl)-2,7-dimethyl-5,7-dihydro-4H-pyrazolo[3,4-c]pyridine-6-carbonyl]imidazol-1-yl]-1H-pyridin-2-one] stands 5.84. With `COc1cccc(C(=O)N2CCc3c(nn(C)c3-c3cc(Cl)cc(CNS(C)(=O)=O)c3)[C@@H]2C)c1Cl` [Example 1, N-[[3-Chloro-5-[(7S)-6-(2-chloro-3-methoxy-benzoyl)-2,7-dimethyl-5,7-dihydro-4H-pyrazolo[3,4-c]pyridin-3-yl]phenyl]methyl]methanesulfonamide] the figure was 7.85; with `COc1cccc(C(=O)N2CCc3c(nn(C)c3-c3cc(Cl)cc(CS(C)(=O)=O)c3)[C@@H]2C)c1Cl` [Example 6, (2-Chloro-3-methoxy-phenyl)-[(7S)-3-[3-chloro-5-(methylsulfonylmethyl)phenyl]-2,7-dimethyl-5,7-dihydro-4H-pyrazolo[3,4-c]pyridin-6-yl]methanone], 7.08; with `C[C@@H]1c2nn(C)c(-c3cc(F)cc(F)c3)c2CCN1C(=O)c1ccc(CCC2CNC(=O)C2)cc1Cl` (stereo partly drawn) [Example 48, 4-[2-[3-Chloro-4-[(7R)-3-(3,5-difluorophenyl)-2,7-dimethyl-5,7-dihydro-4H-pyrazolo[3,4-c]pyridine-6-carbonyl]phenyl]ethyl]pyrrolidin-2-one], 5.78. With `C[C@H]1c2nn(C)c(-c3cc(F)cc(F)c3)c2CCN1C(=O)c1cc(F)cc(CCc2cn[nH]c2)c1Cl` [Example 102, [2-chloro-5-fluoro-3-[2-(JH-pyrazol-4-yl)ethyl]phenyl]-[(7S)-3-(3,5-difluorophenyl)-2,7-dimethyl-5,7-dihydro-4H-pyrazolo[3,4-c]pyridin-6-yl]methanone] the figure was 8.82; with `COc1cccc(C(=O)N2CCc3c(nn(C)c3-c3cc(Cl)cc(C4(C(N)=O)CC4)c3)[C@@H]2C)c1Cl` [Example 16, 1-[3-Chloro-5-[(7S)-6-(2-chloro-3-methoxy-benzoyl)-2,7-dimethyl-5,7-dihydro-4H-pyrazolo[3,4-c]pyridin-3-yl]phenyl]cyclopropanecarboxamide], 7.00.

With `COc1cccc(C(=O)N2CCc3c(nn(C)c3-c3cncc(C(F)(F)F)n3)[C@@H]2C)c1Cl` [Example 8, (2-Chloro-3-methoxy-phenyl)-[(7S)-2,7-dimethyl-3-[6-(trifluoromethyl)pyrazin-2-yl]-5,7-dihydro-4H-pyrazolo[3,4-c]pyridin-6-yl]methanone], the pIC50 was 6.74. Under `CC1c2nn(C)c(-c3cc(Cl)cc(C4(S(C)(=O)=O)CC4)c3)c2CCN1C(=O)c1cc(F)cc(-c2ccc(=O)[nH]c2)c1Cl` (centres unmarked) [Example 60, 5-[2-Chloro-3-[3-[3-chloro-5-(1-methylsulfonylcyclopropyl)phenyl]-2,7-dimethyl-5,7-dihydro-4H-pyrazolo[3,4-c]pyridine-6-carbonyl]-5-fluoro-phenyl]-1H-pyridin-2-one] stands 6.86; under `C[C@H]1c2nn(C)c(-c3cc(F)cc(F)c3)c2CCN1C(=O)c1cc(Cl)cc(OCC2CNC(=O)O2)c1Cl` (stereo partly drawn) [Example 107, 5-[[2,5-dichloro-3-[(7S)-3-(3,5-difluorophenyl)-2,7-dimethyl-5,7-dihydro-4H-pyrazolo[3,4-c]pyridine-6-carbonyl]phenoxy]methyl]oxazolidin-2-one], 9.21.

Take `CC1c2nn(C)c(-c3cc(Cl)cc(C4(NS(C)(=O)=O)CC4)c3)c2CCN1C(=O)c1cc(F)cc(-c2c[nH]c(C#N)c2)c1Cl` (centres unmarked) [Example 84, N-[1-[3-chloro-5-[6-[2-chloro-3-(5-cyano-1H-pyrrol-3-yl)-5-fluoro-benzoyl]-2,7-dimethyl-5,7-dihydro-4H-pyrazolo[3,4-c]pyridin-3-yl]phenyl]cyclopropyl]methanesulfonamide]: the pIC50 is 8.21. This pIC50 is 1.00 log units lower than that of the compound before. With `C[C@@H]1c2nn(C)c(-c3cc(F)cc(F)c3)c2CCN1C(=O)c1cc(F)cc(N2CC3(C2)CS(=O)(=O)C3)c1Cl` [Example 21, [2-Chloro-3-(2,2-dioxo-2λ^6-thia-6-azaspiro[3.3]heptan-6-yl)-5-fluoro-phenyl]-[(7R)-3-(3,5-difluorophenyl)-2,7-dimethyl-5,7-dihydro-4H-pyrazolo[3,4-c]pyridine-6-yl]methanone] the figure was 5.85. Under `C[C@@H]1c2nn(C)c(-c3cc(Cl)cc(C4(C(N)=O)CC4)c3)c2CCN1C(=O)c1cc(F)cc(-c2c[nH]c(C#N)c2)c1Cl` [Example 72, 1-[3-chloro-5-[(7R)-6-[2-chloro-3-(5-cyano-1H-pyrrol-3-yl)-5-fluoro-benzoyl]-2,7-dimethyl-5,7-dihydro-4H-pyrazolo[3,4-c]pyridin-3-yl]phenyl]cyclopropanecarboxamide] stands 7.21; under `C[C@H]1c2nn(C)c(-c3cc(F)cc(F)c3)c2CCN1C(=O)c1cc(Cl)cc(OC[C@H]2CNC(=O)O2)c1Cl` (single isomer, unassigned) [Example 109], 6.43; under `C[C@H]1c2nn(C)c(-c3cc(F)cc(F)c3)c2CCN1C(=O)c1ncnn1[C@H]1CCNC1` (single isomer, unassigned) [Example 54, [3-(3,5-Difluorophenyl)-2,7-dimethyl-5,7-dihydro-4H-pyrazolo[3,4-c]pyridin-6-yl]-(2-pyrrolidin-3-yl-1,2,4-triazol-3-yl)methanone; hydrochloride], 6.15. Under `C[C@@H]1c2nn(C)c(-c3cc(F)cc(F)c3)c2CCN1C(=O)c1cc(F)cc(OCC2CNC(=O)O2)c1Cl` (single isomer, unassigned) [Example 51, 5-[[2-Chloro-3-[3-(3,5-difluorophenyl)-2,7-dimethyl-5,7-dihydro-4H-pyrazolo[3,4-c]pyridine-6-carbonyl]-5-fluoro-phenoxy]methyl]oxazolidin-2-one] stands 6.73; under `C[C@H]1c2nn(C)c(-c3cc(Cl)cc(C4(C(N)=O)CC4)c3)c2CCN1C(=O)c1cc(F)cc(N2CC3(C2)CS(=O)(=O)C3)c1Cl` [Example 75, 1-[3-chloro-5-[(7S)-6-[2-chloro-3-(2,2-dioxo-2λ^6-thia-6-azaspiro[3.3]heptan-6-yl)-5-fluoro-benzoyl]-2,7-dimethyl-5,7-dihydro-4H-pyrazolo[3,4-c]pyridin-3-yl]phenyl]cyclopropanecarboxamide], 5.91. `CNS(=O)(=O)Cc1cc(Cl)cc(-c2c3c(nn2C)[C@H](C)N(C(=O)c2cccc(OC)c2Cl)CC3)c1` [Example 3, 1-[3-Chloro-5-[(7S)-6-(2-chloro-3-methoxy-benzoyl)-2,7-dimethyl-5,7-dihydro-4H-pyrazolo[3,4-c]pyridin-3-yl]phenyl]-N-methyl-methanesulfonamide] showed a pIC50 of 7.20.

In the case of `C[C@@H]1c2nn(C)c(-c3cc(F)cc(F)c3)c2CCN1C(=O)c1cc(F)cc(-c2ccc(=O)[nH]c2)c1Cl` [Example 30, 5-[2-Chloro-3-[(7R)-3-(3,5-difluorophenyl)-2,7-dimethyl-5,7-dihydro-4H-pyrazolo[3,4-c]pyridine-6-carbonyl]-5-fluoro-phenyl]-1H-pyridin-2-one], the pIC50 was 6.41. This pIC50 is 0.79 log units lower than that of the compound before. With `C[C@H]1c2nn(C)c(-c3cncc(C(F)(F)F)n3)c2CCN1C(=O)c1cc(F)cc(-c2c[nH]c(C#N)c2)c1Cl` [Example 64, 4-[2-chloro-3-[(7S)-2,7-dimethyl-3-[6-(trifluoromethyl)pyrazin-2-yl]-5,7-dihydro-4H-pyrazolo[3,4-c]pyridine-6-carbonyl]-5-fluoro-phenyl]-1H-pyrrole-2-carbonitrile] the figure was 7.89; with `COc1cccc(C(=O)N2CCc3c(nn(C)c3-c3cccc(O)n3)[C@@H]2C)c1Cl` [Example 13, (2-Chloro-3-methoxy-phenyl)-[(7S)-3-(6-hydroxy-2-pyridyl)-2,7-dimethyl-5,7-dihydro-4H-pyrazolo[3,4-c]pyridin-6-yl]methanone], 6.21; with `C[C@H]1c2nn(C)c(-c3cc(F)cc(F)c3)c2CCN1C(=O)c1ccnc(OCC2CNC(=O)O2)c1Cl` (stereo partly drawn) [Example 42, 5-[[3-Chloro-4-[(7S)-3-(3,5-difluorophenyl)-2,7-dimethyl-5,7-dihydro-4H-pyrazolo[3,4-c]pyridine-6-carbonyl]-2-pyridyl]oxymethyl]oxazolidin-2-one], 7.59. On to `COc1cccc(C(=O)N2CCc3c(nn(C)c3-c3cc(CNS(C)(=O)=O)cc(Cl)n3)C2C)c1Cl` (centres unmarked) [Example 80, N-[[2-chloro-6-[6-(2-chloro-3-methoxy-benzoyl)-2,7-dimethyl-5,7-dihydro-4H-pyrazolo[3,4-c]pyridin-3-yl]-4-pyridyl]methyl]methanesulfonamide], for which the pIC50 is 6.62.
